In article PMC10331789 (Journal of natural products, 2023) one finds IC50 data, which are given here for one compound.

The target in the test is Na+/K+-ATPase (NKA). Kind of test: luminescent ADP detection assay. Format: biochemical, Sus scrofa.

SMILES strings stand for the structures. pIC50: −log10 of the molar value.

Usually pIC50 stands for the negative decadic logarithm of the IC50, by convention in mol/L. High values mean a low IC50, low ones a high IC50.

`CO[C@H]1C[C@H](O[C@H]2CC[C@@]3(C)[C@@H](C2)C[C@@H]2O[C@]24[C@@H]3[C@H](O)C(=O)[C@]2(C)[C@@H](C3=CC(=O)OC3)CC[C@]42O)O[C@@H](C)[C@@H]1O` [compound 1, (–)-cryptanoside A] gave a pIC50 of 5.92.
